IC50 data for 27 compounds are collected here from patent US6514964B1, “Fused cycloheptane and fused azacycloheptane compounds and their methods of use” (Amgen Inc., priority 1999, dated 2003).

The assay relates to human umbilical cord endothelial cells (HUVEC). Put plainly: HUVEC proliferation assay and/or HUVEC adhesion assay. It counts as cell-based. The following applies: bound stated for the listed compounds. The protocol:
HUVEC Proliferation Assay
1. Coat 3 NUNC polystyrene 96 well plate (VWR, 62409-120; lids 62409-118) with vitronectin (purified internally), fibronectin (Collaborative Biomed 40008A) or fibrinogen (Calbiochem 341578) 50 ng/well in 50 μl PBS, 1 hr @ RT.
a. rinse with 5 mls PBS (no Ca, Mg)
3. Rinse vitronectin plates 1× in 200 μl PBS −/− and add 3000 cells per well in 100 ul growth medium (EBM2 (Clonetics, CC-3156)+EGM2 bullet kit (CC-4176)).
4. Incubate 24 hours at 37° C. to allow attachment.
5. Remove growth medium and add 100 μl growth medium+drugs (25 μM and down by five fold steps in DMSO-0.25% final DMSO concentration).
6. Incubate for 3 days changing media (+drugs).
7. Remove non-adherent cells on Friday with Raindance 12 well plate washer.
8. Wash twice with 200 μl PBS (+Mg & Ca).
9. Tap out excess liquid.
10. Freeze @ −70° C. for 30 minutes.
11. Thaw plate and add 150 μl CyQuant fluorescent dye (Molecular Probes C-7026).
12. Read after 4 minutes @ 485λ (excitation), 530λ (emission).
1. Coat 2 NUNC polystyrene 96 well plates (VWR, 62409-120; lids 62409-118) with 50 μl vitronectin (purified internally) at 50 ng/well in PBS (−Mg & Ca), for 1 hour @ 37° C.
2. Rinse with PBS & block with 150 μl PBS/1% BSA (Sigma A8918), 1 hour at @ 37° C.
3. Prepare drug dilutions:
a. 400 fold concentrate in 100% DMSO
b. 0.25% DMSO [assay]final
c. 10 mM & down (25 μMfinal & down)
d. dilute 1 μl of 400 fold conc into 200 μl adhesion media
a. rinse with 5 ml PBS (no Ca, Mg)
6. Rinse blocking buffer from assay plate and add 50 μl of drug dilutions.
7. Resuspend cells in adhesion media, count and add 2e4 cells/well in 50 μl (4e5/ml).
8. Incubate 60 minutes @ 37° C.
9. Remove non-adherent cells with Raindance 12 well plate washer.
10. Wash twice with 200 μl PBS (+Mg & Ca)
11. Tap out excess liquid.
12. Freeze @ −70° C. for 30 minutes to overnite.
13. Thaw plate and add 150 μl CyQuant fluorescent dye (Molecular Probes C-7026).
14. Read after 2-5 minutes @ 485λ (excitation), 530λ (emission).
Adhesion medium: Media 199 (which contains […] and 0.8 mM MgSO4), 0.5% BSA, 10 mM HEPES, 1 mM MgCl2, and 1 mM MnCl2

Usually IC50 stands for the concentration at which inhibition is half-maximal. The low end stands for higher potency, the high end for lower potency.

The compound `COc1ccc2c(c1)CN(C(=O)NCCCc1ccc3c(n1)NCCC3)CCC2CC(=O)O` (stereo not drawn) [Example 71, 2-(8-methoxy-2-(N-(3-(1,2,3,4-tetrahydropyridino[2,3,b]pyridin-7-yl)propyl)carbamoyl)-1H,3H,4H,5H-benzo[e]azaperhydroepin-5-yl) acetic acid] yielded an IC50 of at most 30 µM. On to `Cc1cc(CCCNC(=O)N2CCC(CC(=O)O)c3ccccc3C2)nc2c1CCCN2` (stereo not drawn) [2-(2-{N-[3-(5-methyl-1,2,3,4-tetrahydropyridino[2,3-b]pyridin-7-yl)propyl]carbamoyl}-1H, 3H, 4H, 5H-benzo[e]azepin-5-yl)acetic acid], for which the IC50 was at most 30 µM. The figure for `O=C(O)CC1CCN(C(=O)NCCCc2ccc3c(n2)NCCC3)Cc2cc(Br)c(Br)cc21` (stereo not drawn) [Example 80, 2-{7,8-Dibromo-2-[N-(3-(1,2,3,4-tetrahydropyridino[2,3-b]pyridin-7-yl)propyl)carbamoyl]-1H,3H,4H,5 H-benzo[e]azepin-5-yl}acetic acid] is at most 30 µM; for `O=C(O)CC1CCN(S(=O)(=O)NCCCCNc2ccccn2)Cc2ccccc21` (stereo not drawn) [Example 14, 2-(2-(((4-(2-pyridylamino)but-1-yl)amino)sulfonyl)-1H,3H,4H,5H-benzo[e]azapin-5-yl)acetic acid] it is at most 30 µM.

The compound `O=C(O)CC1CCN(C(=O)NCCCc2ccc3c(n2)NCCC3)Cc2cc(NS(=O)(=O)c3ccccc3)ccc21` (stereo not drawn) [Example 82, 2-{8-[(Phenylsulfonyl)amino]-2-[N-(3-(1,2,3,4-tetrahydropyridino[2,3-b]pyridin-7-yl)propyl)carbamoyl]-1H,3H,4H,5H-benzo[e]azepin-5-yl}acetic acid] yielded a concentration for half-maximal inhibition (IC50) of at most 30 µM. Then `O=C(O)C[C@@H]1CCN(C(=O)NCCc2ccc3c(n2)NCCC3)Cc2ccccc21` [Example 54, 2-((5S)-2-(N-(3-(1,2,3,4-tetrahydropyridino(2.3-b)pyridin-7-yl)ethyl)carbamoyl)-1H,3H,4H,5H-benzo[e]azapin-5-yl)acetic acid], with at most 30 µM; and `O=C(O)CC1CCN(C(=O)CNCCCNc2ccccn2)Cc2ccccc21` (stereo not drawn) [Example 17], with at most 30 µM; and `O=C(O)CCC1CCN(S(=O)(=O)NCCc2ccc3c(n2)NCCC3)Cc2ccccc21` (stereo not drawn) [Example 47], with at most 30 µM. As for `O=C(O)CC1CCN(C(=O)NCCCCNc2ccccn2)Cc2ccccc21` (stereo not drawn) [Example 3, 2-(2-(N-(4-(2-pyridylamino)butyl)carbamoyl)-1H,3H,4H,5H-benzo[e]azapin-5-yl)acetic acid], the IC50 was at most 30 µM.

`Cc1ccnc(NCCCCNC(=O)N2CCC(CC(=O)O)c3ccccc3C2)c1` (stereo not drawn) [2-[2-(N-{4-[(4-methyl-2-pyridyl)amino]butyl}carbamoyl)-1H, 3H, 4H, 5H-benzo[e]azepin-5-yl]acetic acid]: the half-maximal inhibitory concentration (IC50) is at most 30 µM. Then `CC(C)N(Cc1cnc2c(c1)CCCN2)C(=O)c1cn2c(n1)Cc1ccccc1C(CC(=O)O)C2` (stereo not drawn) [Example 65, 2-{2-[N-(methylethyl)-N-(1,2,3,4tetrahydropyridino[2,3-b]pyridine-6-ylmethyl)carbamoyl]-4H,5H,10H-benzo[d]imidazolo[1,2-a]azepin-5-yl}acetic acid], with at most 30 µM. Then `O=C(O)CC1CCN(C(=O)NCCCCNc2ncccn2)Cc2ccccc21` (stereo not drawn) [Example 10, 2-(2-(N-(4-(pyrimidin-2-ylamino)but-1-yl)carbamoyl)-1H,3H,4H,5H-benzo[e]azapin-5-yl)acetic acid], with at most 30 µM; and `O=C(O)CC1CCN(C(=O)NCCCCNC(=O)NCc2ccccc2)Cc2ccccc21` (stereo not drawn) [2-{2-[N-(4-{[benzylamino]carbonylamino}butyl)carbamoyl]-1H, 3H, 4H, 5H-benzo[e]azepin-5-yl}acetic acid], with at most 30 µM; and `CC(C)(C)OC(=O)Nc1cccc(CCCNC(=O)N2CCC(CC(=O)O)c3ccccc3C2)n1` (stereo not drawn) [Example 12, 2-(2-(N-(3-(6-(tert-butoxycarbonylamino)-2-pyridyl)proyl)carbamoyl)-1H,3H,4H,5H-benzo[e]azapin-5-yl)acetic acid], with at most 30 µM. The figure for `O=C(O)CC1Cn2cc(C(=O)NCc3cnc4c(c3)CCCN4)nc2Cc2ccccc21` (stereo not drawn) [Example 66, 2-{2-[N-(1,2,3,4-tetrahydropyridino [2,3-b]pyridin-6-ylmethyl)carbamoyl]-4H,5H,10H-benzo[d]imidazolo[1,2-a]azepin-5-yl}acetic acid] is at most 30 µM; for `O=C(O)CC1CC(=O)N(CC(=O)NCCCNc2ccccn2)Cc2ccccc21` (stereo not drawn) [Example 25, 2-(2-({N-(4-(2-pyridylamino)prop-1-yl)carbamoyl}methyl)-3-oxo-1H,4H,5H-benzo(e)azepin-5-yl) acetic acid] it is at most 30 µM.

In the case of `O=C(O)CC1CN(CC(=O)NCCCc2ccc3c(n2)NCCC3)CCc2ccccc21` (stereo not drawn) [Example 28, 2-(3-{[N-(3-(1,2,3,4-tetrahydropyridino[2,3-b]pyridin-7-yl)propyl)carbamoyl]methyl}-1H,2H,4H,5H-benzo[d]azepinyl)acetic acid], the IC50 was at most 30 µM. `O=C(O)CC1Cn2cc(C(=O)NCCc3ccc4c(n3)NCCC4)nc2Cc2ccccc21` (stereo not drawn) [Example 63, 2-{2-[N-(2-(1,2,3,4-tetrahydropyridino [2,3-b]pyridin-7-yl)ethyl)carbamoyl]-4H,5H,10H-benzo[d]imidazolo[1,2-a]azepin-5-yl}acetic acid] showed a concentration for half-maximal inhibition (IC50) of at most 30 µM. The figure for `O=C(O)C[C@H]1CCN(C(=O)NCCc2ccc3c(n2)NCCC3)Cc2ccccc21` [Example 53, 2-((5R)-2-(N-(3-(1,2,3,4-tetrahydropyridino(2,3-b)pyridin-7-yl)ethyl)carbamoyl)-1H,3H,4H,5H-benzo[e]azapin-5-yl)acetic acid] is at most 30 µM. With `O=C(O)CC1CN(CC(=O)NCCCCNc2ccccn2)CCc2ccccc21` (stereo not drawn) [Example 27, 2-(3-({N-(4-(2-pyridylamino)but-1-yl)carbamoyl}methyl)-1H,2H,4H,5H-benzo[d]azepin-1-yl) acetic acid], the IC50 was at most 30 µM. The figure for `O=C(O)CC1CCN(C(=O)N2CCC(CNc3ccccn3)CC2)Cc2ccccc21` (stereo not drawn) [Example 7, 2-(2-(((4-(2-pyridylamino)methyl)piperid-1-yl)carbonyl)-1H,3H,4H,5H-benzo[e]azapin-5-yl)acetic acid] is at most 30 µM. On to `O=C(O)CC1CCN(C(=O)NCCCCNC2=NCCN2)Cc2ccccc21` (stereo not drawn) [Example 75, 2-(2-(N-(4-(4,5-dihydroimidazo-2-yl)aminobut-1-yl)carbamoyl)-1H,3H,4H-5H-benzo[e]azapin-5-yl)acetic acid], for which the IC50 is at most 30 µM. For the compound `O=C(O)CC1CCN(S(=O)(=O)NCCc2ccc3c(n2)NCCC3)Cc2ccccc21` (stereo not drawn) [Example 45, 2-(2-(((2-(1,2,3,4-tetrahydropyridino(2,3-b)pyridin-7-yl)ethyl)amino)sulfonyl)-1H,3H,4H,5H-benzo[e]azain-5-yl)acetic acid], the IC50 is at most 30 µM. Then `O=C(O)CC1CCN(S(=O)(=O)NCCCNc2ccccn2)Cc2ccccc21` (stereo not drawn) [Example 15, 2-(2-(((3-(2-pyridylamino)prop-1-yl)amino)sulfonyl)-1H,3H,4H,5H-benzo[e]azapin-5-yl)acetic acid], with at most 30 µM. In turn, `O=C(O)CC1CN(C(=O)NCCc2ccc3c(n2)NCCC3)CCc2ccccc21` (stereo not drawn) [2-(3-(N-(2-(1,2,3,4-tetrahydropyridino[2,3-b]pyridin-7-yl)ethyl)carbamoyl)-1H, 2H, 4H, 5H-benzo[d]azepin-1-yl}acetic acid] showed an IC50 of at most 30 µM. The figure for `O=C(O)CC1CCN(C(=O)NC2CCC(Nc3ccccn3)CC2)Cc2ccccc21` (stereo not drawn) [Example 6, 2-(2-(N-(4-(2-pyridylamino)-trans-cyclohexyl)carbamoyl)-1H,3H,4H,5H-benzo[e]azapin-5-yl)acetic acid] is at most 30 µM; for `COc1ccc2c(c1)CN(C(=O)NCCCCNc1ccccn1)CCC2CC(=O)O` (stereo not drawn) [Example 22, 2-(8-methoxy-2-(N-(4-(2-pyridylamino)but-1-yl)carbamoyl)-1H,3H,4H,5H-benzo[e]azaerhydroepin-5-yl)acetic acid] it is at most 30 µM.
